Source: PubChem BioAssay (NCI)
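Five concentrations, 48 hours, 96-well plates. GI50 marks 50% less growth. The concentration for full growth arrest is given as TGI.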

What was measured:
Assay in all cases: growth of human tumour cells (NCI), 48 h
HS 578T breast = system: HS 578T breast
HT29 colon = system: HT29 colon
IGROV1 ovarian = system: IGROV1 ovarian
M14 melanoma = system: M14 melanoma
MDA-MB-231 breast = system: MDA-MB-231 breast
MDA-MB-435 = system: MDA-MB-435
OVCAR-3 ovarian = system: OVCAR-3 ovarian
OVCAR-4 ovarian = system: OVCAR-4 ovarian
RPMI-8226 leukemia = system: RPMI-8226 leukemia
TK-10 renal = system: TK-10 renal

Structure (SMILES)	GI50 (HS 578T breast) [µM]	GI50 (HT29 colon) [µM]	TGI (HT29 colon) [µM]	GI50 (IGROV1 ovarian) [µM]	TGI (IGROV1 ovarian) [µM]	GI50 (M14 melanoma) [µM]	TGI (M14 melanoma) [µM]	GI50 (MDA-MB-231 breast) [µM]	TGI (MDA-MB-231 breast) [µM]	GI50 (MDA-MB-435) [µM]	TGI (MDA-MB-435) [µM]	GI50 (OVCAR-3 ovarian) [µM]	TGI (OVCAR-3 ovarian) [µM]	GI50 (OVCAR-4 ovarian) [µM]	TGI (OVCAR-4 ovarian) [µM]	GI50 (RPMI-8226 leukemia) [µM]	TGI (RPMI-8226 leukemia) [µM]	GI50 (TK-10 renal) [µM]	TGI (TK-10 renal) [µM]	TGI (HS 578T breast) [µM]
COC(=O)c1c(C)[nH]c(/C=C2\N=C(c3ccc[nH]3)C=C2OC)c1C	0.693	0.0339	> 100	0.147	1.62	0.209	0.619	0.169	1.27	0.108	1.46	0.152	2.09	0.571	2.44	0.856	4.98	0.141	4.03	
CCN(CC)CCCC(C)Nc1cnc(C(=O)Nc2cccc3ccc(OC)nc23)cn1 (stereo not drawn)	11	1.78	3.51	2.09	4.91	1.93	3.71	1.73	3.45	1.77	3.24	2.24	5.24	1.98	4.62	2.45	6.15	15.4	29.7	28.5
Cn1cnc([N+](=O)[O-])c1[Se]c1nc(N)nc2c1ncn2C1OC(CO)C(O)C1O (stereo not drawn)			> 100		> 100		> 100		> 100		> 100		> 100		> 100		> 100		> 100	> 100
C=C(C)C1CCC2(C(=O)O)CCC3(C)C(CCC4C5(C)CCC(OC(=O)NCc6ccccc6)C(C)(C)C5CCC43C)C12 (stereo not drawn)	3.62	3.42	30.4		> 100	5.98	> 100	5.69	54.3	5.33	> 100	2.04	13.9	3.8	> 100	0.757	6.49	3.76	58.4	> 100
O=C1/C(=C/c2ccc(O)cc2)CSc2ccc(Cl)cc21	2.9	16.5	89.7	7.58	51	10	62.2	17.8	44.3	4.54	25.3	5.69	19.4	21.7	> 100	3.62	> 100	15.6	34.2	7.36
C/C=C(\C)CC/C=C/CO[Si](C)(C)C(C)(C)C			> 100		> 100		> 100		> 100		> 100		> 100		> 100		> 100		> 100	> 100
CC[C@H](C)[C@H]1O[C@]2(C=C[C@@H]1C)C[C@@H]1C[C@@H](C/C=C(\C)[C@@H](O[C@H]3C[C@H](OC)[C@@H](O[C@H]4C[C@H](OC)[C@@H](NC)[C@H](C)O4)[C@H](C)O3)[C@@H](C)/C=C/C=C3\CO[C@@H]4[C@H](O)C(C)=C[C@@H](C(=O)O1)[C@]34O)O2	2.31	1.88	4.14	3.06	12	1.93	3.98	2	4.4	1.79	3.62	3.44	11.8	3.3	13.4	3.32	13.6	1.96	4.99	6.56
COc1cc2c(c(OC)c1OC)C(=O)[C@@H]1c3ccc([N+](=O)[O-])cc3C(=O)N(CCCBr)[C@H]21	5.71	14.2	> 100	3.41	21.3	12.1	33.5	2.99	25.3	2.79	14.7	2.02	12.4	17.1	64.2	14.8	91.1	8.04	34.9	35.5
Cc1ccc(C(=O)Nc2ccc(CN3CCN(C)CC3)c(C(F)(F)F)c2)cc1C#Cc1cnc(N)c2ccccc12	0.647	0.367	1.41	0.103	0.814	0.134	0.701	0.519	1.22	0.214	0.835	0.578	1.35	0.219	1.33	0.736	2.08	0.562	1.36	2.07
